Patent publication US9133180B2, “Aurora and FLT3 kinases modulators” (SAREUM LIMITED, priority 2012, dated 2015)

Legend:
Aurora A kinase = Aurora A kinase (Homo sapiens (Human), UniProt O14965); experiment: Aurora A kinase 33P-ATP filter assay (Reaction Biology Corp.); assay type: biochemical
Description: (§1) The ability of the compounds of the invention to inhibit FLT3 kinase and Aurora A and Aurora B kinases was determined using the assays described below.
(§2) Kinase assays were performed at Reaction Biology Corp., Malvern, Pa., USA, using the following general procedure:
(§3) 1) Prepare indicated substrate in freshly prepared Base Reaction Buffer (20 mM Hepes pH 7.5, 10 mM MgCl2, 1 mM EGTA, 0.02% Brij35, 0.02 mg/ml BSA, 0.1 mM Na3VO4, 2 mM DTT, 1% DMSO).
(§4) 2) Deliver cofactors (1.5 mM CaCl2, 16 ug/mL Calmodulin, 2 mM MnCl2) to the substrate solution above.
(§5) 3) Deliver indicated kinase into the substrate solution and gently mix
(§6) 4) Deliver varying concentrations of test compound in DMSO into the kinase reaction mixture.
(§7) 5) Deliver ^33P-ATP (specific activity 0.01 µCi/µL final) into the reaction mixture to initiate the reaction.
(§8) 6) Incubate kinase reaction for 120 min at room temperature.
(§9) 7) Reactions are spotted onto P81 ion exchange filter paper (Whatman #3698-915)
(§10) 8) Unbound phosphate is removed by washing filters extensively in 0.75% phosphoric acid.
(§11) 9) ^33P signal was determined using Typhoon phosphorimagers (GE Healthcare).
(§12) Substrates: Kemptide=[H-LRRASLG] Abltide=[[…]]

[1] = Body weight / tolerability in MV4-11-bearing nude mice; assay type: in vivo, Balb/c nude mouse
Description: (§13) A total of 52 female nude mice were used. The mice were allowed 3 days of acclimatization period before starting the experiment. Mice were implanted subcutaneously (s.c.) with 200 μl of 1×10^7MV4-11 tumour cells in 50% Matrigel in the right flank at the beginning of the study. When tumours reached an average volume of 100-150 mm^3, 32 mice out of the 52 were selected based on tumour volume, and randomly assigned to 4 groups prior to dosing. Each treatment group consisted of 8 tumour-bearing animals (n=8/group).
(§14) A comparison group of mice were treated with cytarabine once daily for 5 days on, 2 days off, for 4 cycles.
(§15) Mice were weighed at each dosing and the tumour sizes recorded twice each week. Mice were observed closely for any overt signs of adverse, treatment-related side effects and these were recorded if and when they were observed.
(§16) Mice were euthanized by CO2 exposure after 4-cycle dose. The tumour volume, weight of dissected tumours, and the mouse body weight were measured and recorded. The tumour inhibitory rate (IR) was calculated by the formula IR=(WV−WT)/WV×100%.

MV4-11 xenograft tumors = experiment: MV4-11 xenograft study in nude mice; assay type: in vivo, Balb/c nude mouse; settings: 4 cycles; for tumour inhibitory rate (IR): 5 days on, 2 day off, tumour weight at end point
Text: The in vivo antitumour activity of compounds of the invention was investigated by examining the effect of the compounds of Examples 2 and 7 on tumour growth in a nude mouse xenograft model of the MV4-11 cancer cell line.
MV4-11 cell line (ATCC, USA); RPMI 1640 medium (Invitrogen, USA); FBS (Invitrogen, Australia); Balb/c nude mouse (Slac Laboratory Animal Co., Ltd., Shanghai, China): female, 18-22 g; HP-6-CD (Sigma, USA).
as §13, §14, §15
The tumour size was measured twice weekly in two dimensions using calipers, and the volume was expressed in mm^3 using the formula: V=0.5 a×b^2 where a and b were the long and short diameters of the tumour, respectively.
as §16
The differences in tumour size between the groups were analyzed for significance using the unpaired two-tailed Student's t-test. P<0.05 was considered to be statistically significant.

[2] = Caco-2 permeability assay; assay type: in vitro ADME; settings: human; for Papp A→B: A2B, read-out: Caco2 A2B Papp; for Papp B→A: B2A, read-out: Caco2 B2A Papp
Description: The ability of a compound to be taken up and retained by a cell can be measured by carrying out permeability studies using Caco-2 cells.
Compounds of the present invention were therefore tested in a standard Caco-2 assay and the rate of flow of the compounds into and out of the cells was determined.
In the table, the column headed “Caco-2 A2B” indicates the rate at which compound flows into the cells and the column Caco-2 B2A indicates the rate at which compound flows out of the cells. The “Efflux Ratio” is the ratio of Caco-2 B2A:Caco-2 A2B.

HCT-116 = experiment: Polyploid phenotype in HCT-116 cells; assay type: cell-based, human
Description: The anti-proliferative activities of compounds of the invention are determined by measuring the ability of the compounds to inhibit the growth of the colorectal cancer derived cell-line HCT-116. Inhibition of cell growth is measured using the Alamar Blue assay (Nociari et al., Journal of Immunological Methods (1998) 213, 157-167). The method is based on the ability of viable cells to reduce resazurin to its fluorescent product resorufin. For each proliferation assay cells are plated onto 96 well plates and allowed to recover for 16 hours prior to the addition of inhibitor compounds for a further 96 hours. At the end of the incubation period 10% (v/v) Alamar Blue is added and incubated for a further 6 hours prior to determination of fluorescent product at Excitation 535 nm and Emission 590 nm. All cell lines are obtained from ECACC (European Collection of cell Cultures).
The activities of the compounds of the invention against the human colorectal cancer cell line HCT-116 are shown the in the table below. The column headed HCT-116 96 Hrs refers to the concentration of compound required to reduce the proliferation of HCT-116 cells by 50% following a 96 h period of exposure. The column headed [Polyploidy] refers to the lowest concentration of compound required to produce a distinct polyploid phenotype, believed to be due to Aurora B inhibition.

HUT-78 = experiment: CellTiter-Blue assay, haematological cell line; assay type: cell-based; settings: Homo sapiens, HuT78, 96 h; HUT-78 (NHL), four days treatment
Description: (§17) The compounds of Examples 2 and 7 were tested against a range of human haematological cell lines using the CellTiter-Blue® assay (#G8081, Promega) according to the manufacturer's instructions. Cells were harvested from exponential phase cultures, counted and plated in 96 well flat-bottom microtiter plates at a cell density of 20,000-90,000 cells/well. After a 24 h recovery period to allow the cells to resume exponential growth, 10 μl of culture medium (four control wells/plate) or of culture medium with test compound were added. The compounds were applied in duplicates at ten concentrations and treatment continued for four days. After treatment of cells, 10 μl/well CellTiter-Blue® reagent was added. Following an incubation period of up to four hours, fluorescence (FU) was measured by using the EnVision Xcite multilabel reader (excitation λ=531 nm, emission λ=615 nm). The compounds were tested in two to four independent experiments for each cell line.

U-937 = experiment: CellTiter-Blue assay, haematological cell line; assay type: cell-based; settings: Homo sapiens, 96 h; U-937 (NHL), four days treatment
Description: as §17

L-363 = experiment: CellTiter-Blue assay, haematological cell line; assay type: cell-based; settings: Homo sapiens, 96 h; L-363 (MM), four days treatment
Description: as §17

CCRF-CEM/VCR = experiment: CellTiter-Blue assay, haematological cell line; assay type: cell-based; settings: Homo sapiens, 96 h; CCRF-CEM/VCR (ALL), four days treatment
Description: as §17

FLT3 kinase = FLT3 kinase (Homo sapiens (Human), UniProt P36888); experiment: FLT3 kinase 33P-ATP filter assay (Reaction Biology Corp.); assay type: biochemical
Sequence of FLT3 kinase (P36888 27-993): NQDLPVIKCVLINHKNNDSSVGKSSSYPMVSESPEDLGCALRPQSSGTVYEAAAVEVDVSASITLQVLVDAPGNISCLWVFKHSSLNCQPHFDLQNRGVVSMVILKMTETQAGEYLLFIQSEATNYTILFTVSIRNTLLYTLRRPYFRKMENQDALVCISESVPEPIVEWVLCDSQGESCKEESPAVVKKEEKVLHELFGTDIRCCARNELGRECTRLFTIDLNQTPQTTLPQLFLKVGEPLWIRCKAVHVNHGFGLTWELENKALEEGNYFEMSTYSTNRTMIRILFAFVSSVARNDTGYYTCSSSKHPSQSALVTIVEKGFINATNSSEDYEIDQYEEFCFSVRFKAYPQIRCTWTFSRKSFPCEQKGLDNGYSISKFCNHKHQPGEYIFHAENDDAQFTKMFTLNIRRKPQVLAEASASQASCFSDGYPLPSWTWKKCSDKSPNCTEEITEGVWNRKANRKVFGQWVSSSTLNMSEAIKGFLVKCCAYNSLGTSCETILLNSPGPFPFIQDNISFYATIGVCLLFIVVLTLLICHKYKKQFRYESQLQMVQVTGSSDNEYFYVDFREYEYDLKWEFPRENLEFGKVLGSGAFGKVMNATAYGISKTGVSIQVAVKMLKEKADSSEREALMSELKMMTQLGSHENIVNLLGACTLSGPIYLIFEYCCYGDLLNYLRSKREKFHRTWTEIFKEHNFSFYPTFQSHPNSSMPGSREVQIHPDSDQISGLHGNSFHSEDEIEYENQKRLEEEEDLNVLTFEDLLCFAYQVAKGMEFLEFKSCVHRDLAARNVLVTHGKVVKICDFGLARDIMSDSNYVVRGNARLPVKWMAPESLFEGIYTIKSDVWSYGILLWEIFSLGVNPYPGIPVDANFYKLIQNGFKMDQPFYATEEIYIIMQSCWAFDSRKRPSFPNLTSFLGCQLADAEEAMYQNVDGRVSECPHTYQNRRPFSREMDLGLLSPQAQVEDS
Description: as §1, §2, §3, §4, §5, §6, §7, §8, §9, §10, §11, §12

Sequence of Aurora A kinase (O14965 whole entry): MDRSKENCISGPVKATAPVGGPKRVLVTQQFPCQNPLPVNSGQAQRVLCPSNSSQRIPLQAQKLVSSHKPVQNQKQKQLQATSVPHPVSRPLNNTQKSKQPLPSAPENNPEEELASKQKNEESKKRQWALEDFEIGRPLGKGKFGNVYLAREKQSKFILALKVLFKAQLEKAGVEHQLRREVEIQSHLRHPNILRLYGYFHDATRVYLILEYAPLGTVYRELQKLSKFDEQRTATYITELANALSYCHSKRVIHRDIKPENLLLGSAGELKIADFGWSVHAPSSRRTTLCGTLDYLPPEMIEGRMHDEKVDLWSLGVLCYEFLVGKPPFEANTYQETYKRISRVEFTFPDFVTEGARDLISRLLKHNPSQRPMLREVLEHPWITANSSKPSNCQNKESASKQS

SMILES	IC50 (Aurora A kinase) [nM]	toxicity in xenograft study ([1]; 20 mg/kg IV BID)	effect on tumour growth (tumour volume) (MV4-11 xenograft tumors; 20 mg/kg IV BID)	tumour inhibitory rate (IR) (MV4-11 xenograft tumors; 20 mg/kg IV BID) [%]	Papp A→B [2] [×10⁻⁶ cm/s]	Papp B→A [2] [×10⁻⁶ cm/s]	efflux ratio ([2]; B2A:A2B, read-out: Caco2 Efflux ratio)	[Polyploidy] lowest concentration producing a distinct polyploid phenotype (HCT-116) [µM]	IC50 (HUT-78) [nM]	IC50 (U-937) [nM]	IC50 (L-363) [nM]	IC50 (CCRF-CEM/VCR) [nM]	IC50 (FLT3 kinase) [nM]	toxicity in xenograft study ([1]; 30 mg/kg IV BID)	effect on tumour growth (tumour volume) (MV4-11 xenograft tumors; 30 mg/kg IV BID)	tumour inhibitory rate (IR) (MV4-11 xenograft tumors; 30 mg/kg IV BID) [%]
Cc1ccc2[nH]ccc2c1-c1nc(C(N)=O)c(-c2ccc(N3CCNC(C)(C)C3)cc2)o1 [Example 2, 2-(5-Methyl-1H-Indol-4-yl)-5-[4-(3,3-dimethyl-piperazin-1-yl)-phenyl]-oxazole-4-carboxylic acid amide]	13.6	without any obvious toxicity	completely inhibited the tumor growth	98.13	1.98	9.91	4.99	0.03	138	94	121	458	0.77	–	–	–
Cc1cc(F)c2[nH]ccc2c1-c1nc(C(N)=O)c(-c2ccc(N3CCNC(C)(C)C3)cc2)o1 [Example 7, 2-(5-Methyl-7-Fluoro-1H-Indol-4-yl)-5-[4-(3,3-dimethyl-piperazin-1-yl)-phenyl]-oxazole-4-carboxylic acid amide]	42.5	–	–	–	0.683	2.26	–	0.1	123	155	104	239	0.48	without any obvious toxicity	completely inhibited the tumor growth	98.24
